The test addresses POLRMT (Homo sapiens (Human), UniProt O00411). Nature of the test: homogeneous TR-FRET assay of mitochondrial transcription (inhibition of POLRMT). The test is classed as biochemical. Particulars: 7.5 nM POLRMT, 15 nM TFB2M, 30 nM TFAM, 0.5 nM DNA template, 500 μM NTPs, 37° C., 60 minutes. How it is done:
The inhibitory activity of the compounds of the present invention against POLRMT were determined by assays based on Bergbrede, T., et al., “An adaptable high-throughput technology enabling the identification of specific transcription modulators,” SLAC Discov., 22, 378-386 (2017).
The ability of some compounds of the present invention to inhibit POLRMT were determined in a homogeneous TR-FRET Assay using high-throughput screening in a 384-well plate format. This method is used to monitor the activity of mitochondrial transcription through measurement of its product, a 407 bp long RNA transcript. Detection of the product is facilitated by hybridization of two DNA-oligonucleotide probes to specific and adjacent sequences within the RNA product sequence. Upon annealing of the probes, two fluorophores are coupled directly to an acceptor nucleotide probe (ATT0647, 5′), or introduced via a coupled streptavidin with a biotinylated donor nucleotide probe (Europium cryptate) that is brought into sufficient proximity to serve as a fluorescence-donor-acceptor pair. Thus, a FRET signal at 665 nm is generated upon excitation at 340 nm.
Proteins used as transcription factors (POLRMT: NP_005026.3, TFAM: NP_003192.1, TFB2M: NP_071761.1) are diluted from their stocks to working concentrations of 1 μM, 20 μM and 4 μM respectively, in a dilution buffer containing 20 mM Tris-HCl (pH 8.0), 200 mM NaCl, 10% (v/v) glycerol, 1 mM Dithiothreitol (DTT), 0.5 mM EDTA.
DNA template is a pUC18 plasmid with the mitochondrial light strand promotor sequence (1-477) cloned between HindIII and BamHI sites. The DNA template is restriction linearized proximal to the promotor 3′-end (pUC-LSP). The reaction mixture (10 uL) containing 7.5 nM POLRMT, 15 nM of TFB2M, 30 nM of TFAM, 0.5 nM of DNA template and 500 μM nucleotide triphosphate mix (NTPs) in a reaction buffer (containing 10 mM Tris-HCl (pH 7.5), 10 mM MgCl2, 40 mM NaCl, 10 mM DTT, 0.005% (w/v) Tween-20, 160 units/ml Rnase inhibitor and 0.1 mg/mL BSA) are dispensed to compounds in microplates, using a Thermo Multidrop® dispenser, and incubated at 37° C. in a VWR INCU-Line incubator for 60 minutes after mixing. No nucleotide triphosphate mix is added to negative control samples. Microplates with compounds to be tested in the assay are prepared from 10 mM compound stocks in 100% DMSO, equal amounts of DMSO without any compound are added to positive control and negative control samples.
During the incubation, a mix of the detection reagents is prepared in a buffer such that the enzymatic reaction is terminated due to chelating of Mg-ions and increased ionic strength, containing 50 mM Tris-HCl (pH 7.5), 700 mM NaCl, 20 mM EDTA, and 0.010% (w/v) Tween-20. Europium-streptavidin is pre-incubated with a 200-fold molar excess of a random sequence oligonucleotide to block unspecific binding of oligo, for two hours at ambient temperature in the dark. Afterwards, the blocked Europium-streptavidin is kept on ice until use.
At the end of the enzymatic reaction time, 5 μL detection oligo mix in the detection buffer is added, and assay plates are mixed and kept at ambient temperature for one hour, protected from light. The concentration of the Acceptor nucleotide oligo (e.g., ATTO647N-5′-[…]-3′) and Donor nucleotide oligo (e.g., bio-5′-AACACATCTCT(-bio)GCCAAACCCCA-bio-3′) in each assay well is 1 nM, and 3 nM, respectively.
After incubation with oligo mix, 5 μL of pre-blocked Europium-streptavidin reagent is dispensed to each assay well, assay plates are again mixed and kept at ambient temperature for one hour, protected from light.
The generated signal is measured with BMG Pherastar microtiter plate reader with a TRF light unit, using excitation at 340 nm, an integration time of 200 μs, and a delay time of 100 μs, before detection at 620 nm and 665 nm. The ratio of donor- and acceptor-fluorescence is used as a measure of the generated transcript product (i.e. enzymatic activity).
On the technique in general: Time-resolved FRET reads energy transfer from a long-lived donor to a nearby acceptor.

Here are results for 34 molecules from patent publication US20240368106A1, “HYDROXY AND ALKOXY COUMARINS AS MODULATORS OF POLRMT” (Pretzel Therapeutics, Inc., priority 2021, published 2024).

Chain of POLRMT (O00411 42-1230): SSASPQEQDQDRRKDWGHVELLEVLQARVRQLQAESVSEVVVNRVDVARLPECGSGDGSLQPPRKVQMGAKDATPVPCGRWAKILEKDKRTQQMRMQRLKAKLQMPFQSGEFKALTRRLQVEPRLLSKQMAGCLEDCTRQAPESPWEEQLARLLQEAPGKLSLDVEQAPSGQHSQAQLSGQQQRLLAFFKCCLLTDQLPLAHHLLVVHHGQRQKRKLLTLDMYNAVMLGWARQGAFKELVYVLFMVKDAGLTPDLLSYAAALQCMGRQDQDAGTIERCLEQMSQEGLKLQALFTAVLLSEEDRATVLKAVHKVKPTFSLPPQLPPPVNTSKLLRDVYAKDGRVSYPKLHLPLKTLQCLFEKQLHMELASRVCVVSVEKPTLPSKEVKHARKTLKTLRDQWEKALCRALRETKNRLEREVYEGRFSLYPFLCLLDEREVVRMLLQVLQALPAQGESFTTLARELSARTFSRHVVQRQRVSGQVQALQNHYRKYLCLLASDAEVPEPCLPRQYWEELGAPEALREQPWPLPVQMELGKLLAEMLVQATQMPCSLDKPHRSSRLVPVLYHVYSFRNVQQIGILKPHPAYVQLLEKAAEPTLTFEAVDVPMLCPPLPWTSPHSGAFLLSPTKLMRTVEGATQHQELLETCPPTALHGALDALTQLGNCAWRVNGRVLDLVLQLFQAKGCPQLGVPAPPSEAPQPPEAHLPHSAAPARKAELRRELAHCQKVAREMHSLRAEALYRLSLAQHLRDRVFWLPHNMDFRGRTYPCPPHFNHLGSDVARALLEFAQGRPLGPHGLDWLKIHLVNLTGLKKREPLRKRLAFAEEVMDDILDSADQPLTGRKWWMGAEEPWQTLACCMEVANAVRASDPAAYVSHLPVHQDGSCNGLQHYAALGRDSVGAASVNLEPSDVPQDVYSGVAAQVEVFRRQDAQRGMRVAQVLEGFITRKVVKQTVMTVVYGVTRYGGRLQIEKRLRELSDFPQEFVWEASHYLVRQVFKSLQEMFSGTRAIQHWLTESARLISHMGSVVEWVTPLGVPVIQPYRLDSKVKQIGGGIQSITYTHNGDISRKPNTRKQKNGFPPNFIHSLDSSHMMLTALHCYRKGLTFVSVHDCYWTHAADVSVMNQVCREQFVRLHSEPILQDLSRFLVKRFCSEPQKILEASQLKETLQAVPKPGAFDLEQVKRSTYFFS

For orientation: IC50 means the concentration needed to halve the response being measured. Molecule `CCCOc1ccc2c(-c3ccccc3C(F)(F)F)cc(=O)oc2c1` [Example 30, 7-propoxy-4-(2-(trifluoromethyl)phenyl)-2H-chromen-2-one] returned an IC50 of 1 µM.

`CCCOc1ccc2c(-c3ccc(F)cc3Cl)cc(=O)oc2c1` [Example 31, 4-(2-chloro-4-fluorophenyl)-7-propoxy-2H-chromen-2-one]: the IC50 was 0.2 µM. To `CCCOc1ccc2c(-c3cnccc3C(F)(F)F)cc(=O)oc2c1` [Example 32, 7-propoxy-4-(4-(trifluoromethyl)pyridin-3-yl)-2H-chromen-2-one] belongs 23 µM; to `CCCOc1ccc2c(-c3cscc3C)cc(=O)oc2c1` [Example 33, 4-(4-methylthiophen-3-yl)-7-propoxy-2H-chromen-2-one], 0.2 µM; to `CCCOc1ccc2c(-c3ccc(O)cc3C)cc(=O)oc2c1` [Example 34, 4-(4-hydroxy-2-methylphenyl)-7-propoxy-2H-chromen-2-one], 4 µM. Turning to `CCCOc1ccc2c(-c3ccccc3OC)cc(=O)oc2c1` [Example 35, 4-(2-methoxyphenyl)-7-propoxy-2H-chromen-2-one], the IC50 was 6 µM. To `CCCOc1ccc2c(-c3cccc4c3OCCO4)cc(=O)oc2c1` [Example 36, 4-(2,3-dihydrobenzo[b][1,4]dioxin-5-yl)-7-propoxy-2H-chromen-2-one] belongs 50 µM.

The molecule `Cc1ccccc1-c1cc(=O)oc2cc(O)cc(C)c12` [Example 37, 7-hydroxy-5-methyl-4-(o-tolyl)-2H-chromen-2-one] registered an IC50 of 2 µM. As for `COc1ccccc1-c1cc(=O)oc2cc(O)ccc12` [Example 50, 7-hydroxy-4-(2-methoxyphenyl)-2H-chromen-2-one], the figure is 10 µM; as for `CCCOc1ccc2c(-c3csc(C)c3C)cc(=O)oc2c1` [Example 51, 4-(4,5-dimethylthiophen-3-yl)-7-propoxy-2H-chromen-2-one], 0.4 µM. The molecule `CCCOc1ccc2c(-c3c(C)noc3C)cc(=O)oc2c1` [Example 52, 4-(3,5-dimethylisoxazol-4-yl)-7-propoxy-2H-chromen-2-one] gave an IC50 of 17 µM. As for `CCCOc1ccc2c(-c3cccnc3C)cc(=O)oc2c1` [Example 53, 4-(2-methylpyridin-3-yl)-7-propoxy-2H-chromen-2-one], the figure is 0.8 µM.

On to `CCCOc1ccc2c(-c3ccncc3C)cc(=O)oc2c1` [Example 54, 4-(3-methylpyridin-4-yl)-7-propoxy-2H-chromen-2-one], for which 3 µM corresponded to half-maximal inhibition (IC50). To `CCCOc1ccc2c(-c3cnc(Cl)cc3C)cc(=O)oc2c1` [Example 55, 4-(6-chloro-4-methylpyridin-3-yl)-7-propoxy-2H-chromen-2-one] belongs 5 µM; to `CC(=O)N1CCC(Oc2ccc3c(-c4ccc(F)cc4Cl)cc(=O)oc3c2)CC1` [Example 56, 7-((1-acetylpiperidin-4-yl)oxy)-4-(2-chloro-4-fluorophenyl)-2H-chromen-2-one], 8 µM; to `CC(=O)N1CCCC(Oc2ccc3c(-c4ccc(F)cc4Cl)cc(=O)oc3c2)C1` (stereo not shown) [Example 57, 7-((1-acetylpiperidin-3-yl)oxy)-4-(2-chloro-4-fluorophenyl)-2H-chromen-2-one], 4 µM. In turn, `Cc1ccccc1-c1cc(=O)oc2cc(OC(C)C)cc(C)c12` [Example 58, 7-isopropoxy-5-methyl-4-(o-tolyl)-2H-chromen-2-one] gave an IC50 of 0.4 µM.

`CC(=O)N1CC[C@H](Oc2ccc3c(-c4ccccc4C)cc(=O)oc3c2)C1` [Example 61, (S)-7-((1-acetylpyrrolidin-3-yl)oxy)-4-(o-tolyl)-2H-chromen-2-one] yielded an IC50 of 28 µM. As for `CC(=O)N1CC[C@@H](Oc2ccc3c(-c4ccccc4C)cc(=O)oc3c2)C1` [Example 62, (R)-7-((1-acetylpyrrolidin-3-yl)oxy)-4-(o-tolyl)-2H-chromen-2-one], the figure is 19 µM; as for `Cc1ccccc1-c1cc(=O)oc2cc(O[C@H]3CCN(C)C3)ccc12` [Example 63, (S)-7-((1-methylpyrrolidin-3-yl)oxy)-4-(o-tolyl)-2H-chromen-2-one], 90 µM; as for `CCCOc1ccc2c(-c3ncccc3C)cc(=O)oc2c1` [Example 64, 4-(3-methylpyridin-2-yl)-7-propoxy-2H-chromen-2-one], 54 µM.

`COCC(Oc1ccc2c(-c3ccccc3C)cc(=O)oc2c1)C(=O)O` (stereo not shown) [Example 65, 3-methoxy-2-((2-oxo-4-(o-tolyl)-2H-chromen-7-yl)oxy)propanoic acid] showed a 50% inhibitory concentration (IC50) of 0.8 µM.

Molecule `Cc1ccccc1-c1cc(=O)oc2cc(O[C@@H]3CCN(C)C3)ccc12` [Example 66, (R)-7-((1-methylpyrrolidin-3-yl)oxy)-4-(o-tolyl)-2H-chromen-2-one] yielded an IC50 of 42 µM. To `COC[C@H](Oc1ccc2c(-c3ccccc3C)cc(=O)oc2c1)C(N)=O` [Example 67, (S)-3-methoxy-2-((2-oxo-4-(o-tolyl)-2H-chromen-7-yl)oxy)propenamide] belongs 16 µM; to `COC[C@@H](Oc1ccc2c(-c3ccccc3C)cc(=O)oc2c1)C(N)=O` [Example 68, (R)-3-methoxy-2-((2-oxo-4-(o-tolyl)-2H-chromen-7-yl)oxy)propenamide], 0.7 µM; to `CNC(=O)[C@H](COC)Oc1ccc2c(-c3ccccc3C)cc(=O)oc2c1` [Example 69, (S)-3-methoxy-N-methyl-2-((2-oxo-4-(o-tolyl)-2H-chromen-7-yl)oxy)propenamide], 17 µM. For `CNC(=O)[C@@H](COC)Oc1ccc2c(-c3ccccc3C)cc(=O)oc2c1` [Example 70, (R)-3-methoxy-N-methyl-2-((2-oxo-4-(o-tolyl)-2H-chromen-7-yl)oxy)propenamide], it took 0.9 µM to reach half-maximal inhibition (IC50).

`COC[C@@H](Oc1ccc2c(-c3ccccc3C)cc(=O)oc2c1)C(=O)N(C)C` [Example 71, (R)-3-methoxy-N,N-dimethyl-2-((2-oxo-4-(o-tolyl)-2H-chromen-7-yl)oxy)propenamide] returned an IC50 of 0.1 µM. Molecule `COC[C@H](Oc1ccc2c(-c3ccccc3C)cc(=O)oc2c1)C(=O)N(C)C` [Example 72, (S)-3-methoxy-N,N-dimethyl-2-((2-oxo-4-(o-tolyl)-2H-chromen-7-yl)oxy)propenamide] showed an IC50 of 10 µM. In the case of `COCC(Oc1ccc2c(-c3ccc(F)cc3Cl)cc(=O)oc2c1)C(=O)O` (stereo not shown) [Example 73, 2-((4-(2-chloro-4-fluorophenyl)-2-oxo-2H-chromen-7-yl)oxy)-3-methoxypropanoic acid], the IC50 was 3 µM. For `COCC(Oc1ccc2c(-c3ccccc3Cl)cc(=O)oc2c1)C(=O)O` (stereo not shown) [Example 84, 2-((4-(2-chlorophenyl)-2-oxo-2H-chromen-7-yl)oxy)-3-methoxypropanoic acid], the IC50 amounted to 2 µM. The molecule `CCOCC(Oc1ccc2c(-c3ccccc3C)cc(=O)oc2c1)C(N)=O` (stereo not shown) [Example 99] had an IC50 of 4 µM. Consider `CCOCC(Oc1ccc2c(-c3ccccc3C)cc(=O)oc2c1)C(N)=O` (stereo not shown) [Example 100], for which half-maximal inhibition (IC50) required 0.9 µM. Consider `COC[C@@H](Oc1ccc2c(-c3ccccc3C)cc(=O)oc2c1)C(=O)O` [Example 101, (R)-3-methoxy-2-((2-oxo-4-(o-tolyl)-2H-chromen-7-yl)oxy)propanoic acid], for which the IC50 turned out to be 0.4 µM.
